Patent US20160310524A1, “COMPOSITIONS AND METHODS FOR TREATING DYSREGULATED SYSTEMS” (priority 2013, published 2016)

Legend:
Assay type in all cases: in vivo
[1] = test system: patients where involvement with glutamate is suspected; experiment: Low dose (Trojan horse) treatment of patients where involvement with glutamate is suspected
Excerpt: For example one of the stimulating systems in the body is the glutamate receptor mechanism. Some of the biggest challenges in neuropsychiatric pharmacology is breaking through the defenses of these “buffered” systems like NMDA. The “Trojan horses” can enter into the receptor mechanism and change it without disturbing the situation. This explains why certain diseases that are not well treated, such as autism, have responded to any number of treatments but none of them consistently. If the balance between more autistic and less autistic behavior is very much leaning toward improved socialization, then perhaps any “Trojan horse” that can slip past the “fortress” of the glutamate receptors that are refusing to participate may add enough positive to affect socialization and the child has a miraculous response to the minute dose of medicine.
Examples: low dose Abilify and mecamylamine have been successful in treating patients where involvement with glutamate is suspected. Indeed we have few disorders that are known to be caused by glutamate despite the large role it plays in brain function. One medication that has been used for several years is Mematine, which is supposed to help memory in patients with Alzheimer's. […] Another example is the destructive flashbacks seen when individuals have taken PCP. […]

[2] = test system: subject with dissociation disorder; experiment: Example protocol for memantine (Namenda) in dissociation disorder: sample chart for an example patient
Method: Example Protocol for Memantine (Namenda®)
Day 1: Give Namenda ½ of a 5 mg tablet in the morning.
Day 2: If the patient has absolutely no positive change in their behavior in the form of genuine social interactions, give another ½ of a 5 mg tablet in the morning.
Day 3: No matter what happened, give no Namenda on Day 3.
If there has been no improvement, give ½ of a 5 mg tablet in the morning.
Day 5: If there has been no improvement since Day 1, give ½ of a 5 mg tablet in the morning.
Day 6: No matter what happens, give no Namenda on Day 6.
Day 7: If there has been only minimal improvement after a total of 7.5 mg of Namenda, give ½ of a 5 mg Namenda. If there has been no improvement after a total of 10 mg of Namenda, give ½ of a 5 mg Namenda. Otherwise, give no Namenda on Day 7. […]
Here is a sample chart for an example patient following the steps and a plan for week 2. […]
Side effects of Namenda: how to know if the dose is too high. The negative social effects of Namenda can be described as disinhibitory. This mean that the person's normal understanding of personal boundaries with others is lost—i.e., the patient loses their inhibition like someone who is intoxicated. They may be excessively aggressive both verbally and physically about incidental matters. They may become intrusive into other people's business. They may become flirtatious or aggressive. If a person has any of these behaviors it most likely means that the Namenda dose is getting too high.

[3] = Effect of memantine on socialization in people; conditions: in many people
[4] = test system: seizure patient with rage behavior; experiment: Case number 2: seizure patient with rage behavior
Method: The patient had been on a large dose thioridazine (400 mg/day).
One drives fear and involves beta-receptors. The other drives aggression and involves alpha-receptors.

[5] = test system: schizophrenic acute psychosis patients and patients having autism spectrum social disorder; experiment: Mecamylamine in patients with schizophrenic acute psychosis or autism spectrum social disorder: verbal communication
Method: In some embodiments, the effective dose of mecamylamine is 0.025 mg/kg to about 0.125 mg/kg twice a week. In some cases, the effective dose of mecamylamine in schizophrenic acute psychosis patients and patients having autism spectrum social disorder results in improved verbal communication from 50 to 150%. In some embodiments, one dose may have an effect of improved verbal communication up to two months.

[6] = Day 1, dose given ½ of a 5 mg Namenda
[7] = Day 2, dose given ½ of a 5 mg Namenda
[8] = Day 5, dose given ½ of a 5 mg Namenda

**Q.** For `O=C1CCc2ccc(OCCCCN3CCN(c4cccc(Cl)c4Cl)CC3)cc2N1` [Abilify, aripiprazole], which success of treatment [1] is on record?
**A.** The success of treatment was “successful”.

**Q.** Which Improvement [2, 6] does the source give for `CC12CC3CC(C)(C1)CC(N)(C3)C2` [Namenda, memantine] here?
**A.** Its Improvement is “None”.

**Q.** What about the “Side Effects or Disinhibition” value [2, 6] of the same compound?
**A.** The value was “None”.

**Q.** And the Improvement [2, 7]?
**A.** Its Improvement is “None”.

**Q.** And the “Side Effects or Disinhibition” value [2, 7]?
**A.** Its value is “None”.

**Q.** What about the “Degree or Detail of Improvement” value ([2]; Day 3, no dose given) of the same compound?
**A.** The value was “Spoke normally”.

**Q.** What about the Improvement ([2]; Day 3, no dose given) of the same compound?
**A.** The Improvement was “Slight”.

**Q.** What about the “Side Effects or Disinhibition” value ([2]; Day 3, no dose given) of the same compound?
**A.** Its value is “None”.

**Q.** And the “Degree or Detail of Improvement” value ([2]; Day 4, no dose given)?
**A.** The value was “Same as Day 3”.

**Q.** And the Improvement ([2]; Day 4, no dose given)?
**A.** Its Improvement is “Slight”.

**Q.** What about the “Side Effects or Disinhibition” value ([2]; Day 4, no dose given) of the same compound?
**A.** The value was “None”.

**Q.** What about the “Degree or Detail of Improvement” value [2, 8] of the same compound?
**A.** Its value is “Ate their meal”.

**Q.** And the Improvement [2, 8]?
**A.** The Improvement was “Good”.

**Q.** And the “Side Effects or Disinhibition” value [2, 8]?
**A.** Its value is “None”.

**Q.** What about the “Degree or Detail of Improvement” value ([2]; Day 6, no dose given) of the same compound?
**A.** Its value is “Same as Day 4”.

**Q.** What about the Improvement ([2]; Day 6, no dose given) of the same compound?
**A.** The Improvement was “Continues Good”.

**Q.** And the “Side Effects or Disinhibition” value ([2]; Day 6, no dose given)?
**A.** Its value is “None”.

**Q.** And the Improvement ([2]; Day 7, no dose given)?
**A.** The Improvement was “Same”.

**Q.** And the “Side Effects or Disinhibition” value ([2]; Day 7, no dose given)?
**A.** The value was “None”.

**Q.** And the effect on socialization [3]?
**A.** The effect on socialization was “increase their socialization”.

**Q.** What about the effect on socialization ([3]; listed as Mematine) of the same compound?
**A.** Its effect on socialization is “increasing their socialization”.

**Q.** With `COc1cc2nc(N3CCN(C(=O)C4COc5ccccc5O4)CC3)nc(N)c2cc1OC` (stereo not drawn) [doxazosin] as the compound, how does the “effect on severe psychotic symptoms” value ([4]; doxazosin added, patient on propranolol and haloperidol) read?
**A.** Its value is “stopped the severe psychotic symptoms”.

**Q.** With `CNC1(C)C2CCC(C2)C1(C)C` (stereo not drawn) [mecamylamine] as the compound, how does the “duration of effect of improved verbal communication” value ([5]; one dose) read?
**A.** The value was “up to two”.

**Q.** And the “duration of effect of improved verbal communication” value ([5]; one weekly protocol)?
**A.** The value was “up to 4 months”.

**Q.** What about the success of treatment [1] of the same compound?
**A.** Its success of treatment is “successful”.

**Q.** Which “character of rage when it occurred” value ([4]; on propranolol, compared with before beta blocker treatment) does the source give for `CC(C)NCC(O)COc1cccc2ccccc12` (stereo not drawn) [propranolol] here?
**A.** The value was “wilder and more psychotic”.

**Q.** What about the frequency of rages ([4]; on the beta blocker propranolol) of the same compound?
**A.** Its frequency of rages is “less frequent rages”.
